Results on one compound are retold here after publication PMC11040934, “PI3Kγδ inhibition suppresses key disease features in a rat model of asthma” (Respiratory Research, 2024).

The subject of the assay is Brown Norway rats, OVA sensitised and challenged. Briefly: Rat model of allergic asthma: BAL cellular inflammation. The following applies: BAL 24 hrs after OVA challenge; i.t. dosing. The class given is in vivo, Brown Norway rat. The method, then: Male, adult, Brown Norway rats were obtained from Charles River Germany at a body weight range of 250-300 g. Animals were housed in temperature controlled individually ventilated cages in groups of 4 with food and water provided ad libitum. Animals underwent acclimatisation for at least 1 week prior to experimentation. Experiments were performed in accordance with the UK Home Office guidelines for animal welfare based on the Animals (Scientific Procedures) Act of 1986 and the ARRIVE guidelines (Fig. E2).
Initially a time course study was performed, followed by a characterisation study with compound & clinical comparator. For both studies, rats were sensitised on day 0, 14 and 21 by an intraperitoneal (i.p.) injection of 4 mL/kg (1 mL/rat) of ovalbumin (OVA;100 μg/rat) in Imject™ Alum (20 mg/rat aluminium hydroxide and 20 mg/rat magnesium hydroxide) or sham sensitised (Saline [Sal] in Imject™ Alum). On day 28 rats were challenged with 1% (w/v) aerosolised OVA in isotonic saline, or sham challenged with isotonic saline (30 mins).
Following blood collection, rats underwent tracheostomy and were cannulated. Rats were lavaged and bronchoalveolar lavage (BAL) fluid was collected (2 × 3 mL RPMI, 30 secs, 70% vol. retained). Slides were prepared using 100 μL of neat BAL, centrifuged (700 rpm, 5 mins, RT, low acceleration; Cytospin 2, Shandon, Runcorn, UK). 800 μL of neat BAL was collected and centrifuged (800×g, 10 mins, 4 °C). Supernatant was collected and stored (− 80 °C), and cell pellet was resuspended (200 μL, RPMI), total leukocytes were attained using a Sysmex XP-300 automated cell counter (Sysmex Ltd., Milton Keynes, UK). Remaining BAL was centrifuged (800×g, 10 mins, 4 °C) and supernatant collected and stored (− 80 °C).
BAL cytospin slides were placed in an automated stainer (Hematek 2000, Ames. Co., USA) and stained with a Modified-Wright stain (Siemens, Germany). Differential cell counts using a light microscope were performed based on morphological criteria were performed to determine percentages of macrophages/monocytes, lymphocytes, neutrophils & eosinophils. Total numbers of each distinct cell type were determined based on total leukocyte numbers.

For the compound `Cc1nc(Nc2cccc(N3CCCC3=O)n2)sc1-c1cc2c(c(S(C)(=O)=O)c1)C(=O)N([C@@H](C)C1CC1)C2` [AZD8154], the BAL eosinophils result is “statistically significant decrease” and the BAL neutrophils result is given as “statistically significant decrease”.
